Measured values reported in article PMC5926957 (Japanese Journal of Cancer Research : Gann, 2002).

Molecular target: P-glycoprotein (P-gp) (Homo sapiens, UniProt P08183)
Experiment: calcein-AM efflux assay in L-MDR1 vs LLC-PK1 cells
Assay type: cell-based

Chain of P-glycoprotein (P-gp) (P08183 whole entry): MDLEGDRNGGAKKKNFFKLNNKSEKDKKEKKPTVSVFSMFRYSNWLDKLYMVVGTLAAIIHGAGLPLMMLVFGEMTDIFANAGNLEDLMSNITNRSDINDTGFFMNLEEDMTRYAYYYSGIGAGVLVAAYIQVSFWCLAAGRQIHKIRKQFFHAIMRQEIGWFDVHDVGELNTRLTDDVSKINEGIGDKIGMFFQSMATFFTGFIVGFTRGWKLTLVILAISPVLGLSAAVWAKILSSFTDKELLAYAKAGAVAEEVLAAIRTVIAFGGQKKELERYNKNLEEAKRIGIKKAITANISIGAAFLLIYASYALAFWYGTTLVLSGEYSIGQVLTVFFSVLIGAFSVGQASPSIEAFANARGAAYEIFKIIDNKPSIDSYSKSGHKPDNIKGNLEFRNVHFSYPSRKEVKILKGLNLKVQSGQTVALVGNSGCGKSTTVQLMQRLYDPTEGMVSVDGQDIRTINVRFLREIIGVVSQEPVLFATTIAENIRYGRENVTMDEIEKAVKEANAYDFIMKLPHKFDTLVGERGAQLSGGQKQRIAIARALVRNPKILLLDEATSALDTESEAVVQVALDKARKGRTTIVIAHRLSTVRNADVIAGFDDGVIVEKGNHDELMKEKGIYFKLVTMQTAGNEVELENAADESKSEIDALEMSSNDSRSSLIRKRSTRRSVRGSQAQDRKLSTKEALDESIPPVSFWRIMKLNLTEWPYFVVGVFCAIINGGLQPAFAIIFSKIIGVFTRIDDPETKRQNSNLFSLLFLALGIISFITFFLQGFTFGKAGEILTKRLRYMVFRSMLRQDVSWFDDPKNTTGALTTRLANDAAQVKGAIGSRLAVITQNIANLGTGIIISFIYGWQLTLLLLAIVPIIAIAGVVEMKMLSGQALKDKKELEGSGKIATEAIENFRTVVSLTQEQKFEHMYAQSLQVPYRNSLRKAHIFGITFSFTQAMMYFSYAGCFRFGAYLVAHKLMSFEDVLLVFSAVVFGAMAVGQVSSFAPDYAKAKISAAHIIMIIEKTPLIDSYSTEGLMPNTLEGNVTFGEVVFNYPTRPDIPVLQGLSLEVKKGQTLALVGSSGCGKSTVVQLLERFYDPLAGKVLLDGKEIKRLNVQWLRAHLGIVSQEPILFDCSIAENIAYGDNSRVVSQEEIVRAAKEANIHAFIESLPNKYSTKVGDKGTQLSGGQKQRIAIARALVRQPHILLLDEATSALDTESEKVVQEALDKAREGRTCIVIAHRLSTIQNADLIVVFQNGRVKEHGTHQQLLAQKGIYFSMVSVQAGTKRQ

CC(C)C[C@H]1C(=O)N2CCC[C@H]2[C@]2(O)O[C@](NC(=O)[C@@H]3C=C4c5cccc6[nH]c(Br)c(c56)C[C@H]4N(C)C3)(C(C)C)C(=O)N12 [bromocriptine] gave a Ki of 6.52 µM.
